# Data published in ChEMBL document CHEMBL3232789, “Design and synthesis of novel 2H-chromen-2-one derivatives bearing 1,2,3-triazole moiety as lead antimicrobials” (2014).
# Tests used:
# Aspergillus niger = assay: Antifungal activity against Aspergillus niger MTCC 282 assessed as growth inhibition at 100 ug/mL after 30 hrs by cup plate method; type: functional; conditions: MTCC 282, 30 h, read-out: DIZ
# Aspergillus fumigatus = assay: Antifungal activity against Aspergillus fumigatus MTCC 343 assessed as growth inhibition at 100 ug/mL after 30 hrs by cup plate method; type: functional; conditions: MTCC 343, 30 h, read-out: DIZ
# Aspergillus flavus = assay: Antifungal activity against Aspergillus flavus MTCC 277 assessed as growth inhibition at 100 ug/mL after 30 hrs by cup plate method; type: functional; conditions: MTCC 277, 30 h, read-out: DIZ
# Candida albicans = assay: Antifungal activity against Candida albicans MTCC 227 assessed as growth inhibition at 100 ug/mL after 30 hrs by cup plate method; type: functional; conditions: MTCC 227, 30 h, read-out: DIZ
# Staphylococcus aureus = assay: Antibacterial activity against Staphylococcus aureus MTCC 096 assessed as growth inhibition at 100 ug/mL after 14 hrs by cup plate method; type: functional; conditions: MTCC 096, 14 h, read-out: DIZ
# Bacillus subtilis = assay: Antibacterial activity against Bacillus subtilis MTCC 441 assessed as growth inhibition at 100 ug/mL after 14 hrs by cup plate method; type: functional; conditions: MTCC 441, 14 h, read-out: DIZ
# [1] = test system: Staphylococcus epidermidis; assay: Antibacterial activity against Staphylococcus epidermidis MTCC 435 assessed as growth inhibition at 100 ug/mL after 14 hrs by cup plate method; type: functional; conditions: MTCC 435, 14 h, read-out: DIZ
# Escherichia coli = assay: Antibacterial activity against Escherichia coli MTCC 443 assessed as growth inhibition at 100 ug/mL after 14 hrs by cup plate method; type: functional; conditions: MTCC 443, 14 h, read-out: DIZ
# Pseudomonas aeruginosa = assay: Antibacterial activity against Pseudomonas aeruginosa MTCC 424 assessed as growth inhibition at 100 ug/mL after 14 hrs by cup plate method; type: functional; conditions: MTCC 424, 14 h, read-out: DIZ
# Salmonella typhi = assay: Antibacterial activity against Salmonella typhi MTCC 733 assessed as growth inhibition at 100 ug/mL after 14 hrs by cup plate method; type: functional, Salmonella enterica subsp. enterica serovar Typhi; conditions: Salmonella enterica, MTCC 733, 14 h; read-out: DIZ
# Klebsiella pneumoniae = assay: Antibacterial activity against Klebsiella pneumoniae MTCC 432 assessed as growth inhibition at 100 ug/mL after 14 hrs by cup plate method; type: functional; conditions: MTCC 432, 14 h, read-out: DIZ
SMILES,zone of inhibition at 100 µg/mL (Aspergillus niger) [mm],zone of inhibition at 100 µg/mL (Aspergillus fumigatus) [mm],zone of inhibition at 100 µg/mL (Aspergillus flavus) [mm],zone of inhibition at 100 µg/mL (Candida albicans) [mm],zone of inhibition at 100 µg/mL (Staphylococcus aureus) [mm],zone of inhibition at 100 µg/mL (Bacillus subtilis) [mm],zone of inhibition at 100 µg/mL [1] [mm],zone of inhibition at 100 µg/mL (Escherichia coli) [mm],zone of inhibition at 100 µg/mL (Pseudomonas aeruginosa) [mm],zone of inhibition at 100 µg/mL (Salmonella typhi) [mm],zone of inhibition at 100 µg/mL (Klebsiella pneumoniae) [mm]
Cc1cc(=O)oc2cc(OCCCCCCn3cc(CN4CCCC4)nn3)ccc12,12.5,18.5,14.7,14.4,13.6,14,14,11.7,14.8,15.2,14.4
Cc1cc(=O)oc2cc(OCCCCCCn3cc(CN4CCCCC4)nn3)ccc12,11.9,18.8,12.5,14,12.9,12.6,13.1,12.8,13.2,14.4,12.9
Cc1cc(=O)oc2cc(OCCCCCCn3cc(CN4CCOCC4)nn3)ccc12,12.9,16.9,16.8,13.5,11.7,15.4,13.4,14.4,14.5,13.5,14.6
Cc1cc(=O)oc2cc(OCCCCCCn3cc(CN4CCN(C)CC4)nn3)ccc12,14,18.4,14.4,13.6,12.5,12.4,14.6,14.7,13.9,13.1,12.4
CC(=O)N1CCN(Cc2cn(CCCCCCOc3ccc4c(C)cc(=O)oc4c3)nn2)CC1,12.7,18.2,12.9,14.7,14.4,12.4,14.8,13.3,17.1,12.1,14.4
Cc1cc(=O)oc2cc(OCCCCCCn3cc(CN4CCN(Cc5ccc6c(c5)OCO6)CC4)nn3)ccc12,11.9,20.6,15,16.8,14,12.5,11.9,12.3,14.9,14.1,13.9
Cc1cc(=O)oc2cc(OCCCCn3cc(CN4C(=O)c5ccccc5C4=O)nn3)ccc12,12.8,19,13.8,16.5,12.8,12.9,12.4,12.7,13.9,12.2,12.4
